Target: EGFR (UniProt P00533)
Assay: Inhibition of EGFR Kinase Activity

Chain of EGFR (P00533 whole entry, looked up): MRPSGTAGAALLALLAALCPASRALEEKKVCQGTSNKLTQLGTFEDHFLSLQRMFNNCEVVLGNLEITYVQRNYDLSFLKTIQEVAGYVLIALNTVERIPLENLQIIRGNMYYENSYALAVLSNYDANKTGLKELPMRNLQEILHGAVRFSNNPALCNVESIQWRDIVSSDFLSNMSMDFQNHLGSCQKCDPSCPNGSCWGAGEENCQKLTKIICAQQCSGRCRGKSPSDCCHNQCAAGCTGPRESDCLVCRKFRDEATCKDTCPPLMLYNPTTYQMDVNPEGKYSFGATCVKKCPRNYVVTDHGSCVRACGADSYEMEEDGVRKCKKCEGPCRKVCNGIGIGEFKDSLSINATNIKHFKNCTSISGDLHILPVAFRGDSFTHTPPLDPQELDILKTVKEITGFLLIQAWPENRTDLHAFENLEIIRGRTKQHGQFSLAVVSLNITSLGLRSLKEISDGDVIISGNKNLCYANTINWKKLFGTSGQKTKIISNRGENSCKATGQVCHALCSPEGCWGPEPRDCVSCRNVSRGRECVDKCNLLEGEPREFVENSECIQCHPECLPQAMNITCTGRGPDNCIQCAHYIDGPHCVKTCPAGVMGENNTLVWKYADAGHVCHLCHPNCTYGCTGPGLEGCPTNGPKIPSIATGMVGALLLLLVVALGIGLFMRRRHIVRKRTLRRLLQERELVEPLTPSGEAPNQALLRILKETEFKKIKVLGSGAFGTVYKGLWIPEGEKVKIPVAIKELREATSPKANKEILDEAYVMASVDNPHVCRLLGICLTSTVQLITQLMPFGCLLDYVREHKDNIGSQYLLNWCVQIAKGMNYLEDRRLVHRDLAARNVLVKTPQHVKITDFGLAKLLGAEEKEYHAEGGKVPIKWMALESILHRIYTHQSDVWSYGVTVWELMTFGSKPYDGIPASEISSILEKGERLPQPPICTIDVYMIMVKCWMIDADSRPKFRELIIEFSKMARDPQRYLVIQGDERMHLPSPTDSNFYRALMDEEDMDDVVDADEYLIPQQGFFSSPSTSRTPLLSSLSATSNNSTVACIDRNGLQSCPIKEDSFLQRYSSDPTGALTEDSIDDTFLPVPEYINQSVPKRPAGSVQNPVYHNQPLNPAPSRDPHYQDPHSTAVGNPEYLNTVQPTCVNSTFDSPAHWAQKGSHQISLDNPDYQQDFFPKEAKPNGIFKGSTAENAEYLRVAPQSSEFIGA

IC50 [µM] | SMILES
< 10 | COc1ccc(N2C(=O)N(c3ccc(OC)cc3)C(C)c3cnc(Nc4ccccc4)nc32)cc1 (configuration not stated)
< 10 | COc1ccc(N2C(=O)N(c3ccccc3)c3nc(N(C(C)=O)c4ccccc4)ncc3C2C)cc1 (configuration not stated)
< 10 | COc1ccc(N2C(=O)N(c3ccccc3)c3nc(Nc4ccccc4)ncc3[C@@H]2C)cc1
< 10 | COc1ccc(N2C(=O)N(c3cccc(C#N)c3)c3nc(Nc4ccccc4)ncc3C2C)c(F)c1 (configuration not stated)
< 10 | COc1ccc(N2C(=O)N(c3ccccc3)c3nc(Nc4ccccc4)ncc3C2C)c(F)c1 (configuration not stated)
< 10 | COc1ccc(N2C(=O)N(c3ccccc3)c3nc(Nc4ccccc4)ncc3C2C)cc1 (configuration not stated)
< 10 | COc1ccc(N2C(=O)N(c3ccccc3)c3nc(Nc4ccccc4)ncc3C2C(C)C)cc1 (configuration not stated)
< 10 | COc1ccc(N2C(=O)N(c3cccc(C(N)=O)c3)c3nc(Nc4ccccc4)ncc3C2C)c(F)c1 (configuration not stated)
< 10 | COc1ccc(N2C(=O)N(c3cccc(C(N)=O)c3)c3nc(Nc4ccccc4)ncc3C2C)cc1 (configuration not stated)
< 10 | COc1ccc(N2C(=O)N([C@@H](C)c3ccccc3)c3nc(Nc4ccccc4)ncc3C2C)cc1 (some centres not stated)
< 10 | COc1ccc(N2C(=O)N(c3ccccc3)c3nc(Nc4ccccc4)ncc3[C@H]2C)cc1
< 10 | COc1ccc(N2C(=O)N([C@H](C)CO)c3nc(Nc4ccccc4)ncc3[C@@H]2C)cc1
< 10 | CCC1c2cnc(Nc3ccccc3)nc2N(c2ccccc2)C(=O)N1c1ccc(OC)cc1 (configuration not stated)
< 10 | COc1ccc(N2C(=O)N([C@H]3CC[C@H](O)CC3)c3nc(Nc4ccccc4)ncc3C2C)cc1 (some centres not stated)
< 10 | COc1ccc(N2C(=O)N(c3cccc(C#N)c3)c3nc(Nc4ccccc4)ncc3C2C)cc1 (configuration not stated)
< 10 | COc1ccc(Cl)c(N2C(=O)N(c3ccccc3)c3nc(Nc4ccccc4)ncc3C2C)c1 (configuration not stated)
< 10 | COc1ccc(N2C(=O)N([C@H](C)CO)c3nc(Nc4ccccc4)ncc3[C@H]2C)cc1

— the Kinase Knowledgebase extract (Sharma et al. 2016)
